Data reported in patent US8785472B2, “Use of dextromethorphan in treating addictive behavior or bipolar disorder” (National Cheng Kung University, priority 2010, dated 2014).
“Also recorded” adds a separate entry of the source.

Key:
[1] = test system: plasma TNF-alpha, CRP, IL-1beta, IL-6, IL-8, BDNF; experiment: Plasma immunological markers (ELISA) in the DM add-on methadone trial; assay type: in vivo, human; conditions: for plasma TNF-alpha concentration: FIG. 3
Protocol: • Human Cytokine Array I (Ray Biotech Inc., Norcross, Ga.) consisted of 23 different cytokine and chemokine antibodies spotted in duplicate onto a membrane (Dvorakova et al. 2004). The membranes were blocked with 10% bovine serum albumin in Tris-buffered saline according to the instructions of the manufacturer. One and a half milliliters of conditioned medium was added to each membrane in separate wells of a six-well plate. The membranes were shaken at 110 rpm at room temperature for an hour and a half. All washes were done in new six-well plates, according to the instructions of the manufacturer. Two milliliters of a 1:500 dilution of biotinconjugated antibodies was added to each membrane, and the mixture was incubated on a shaker for an hour and a half at room temperature. Following the wash, the membranes were incubated with a 1:40,000 dilution of strepavidin-conjugated peroxidase for 1 hour at room temperature, according to the instructions of the manufacturer. Following a thorough wash, the membranes were exposed to a peroxidase substrate (ChemGlow West; Alphalnnotech Corp., San Leandro, Calif.) for 5 min in the dark before imaging. Two or six individual membranes were placed side-by-side in a plastic protective folder and sealed. Imaging was done with a UVP AutoChemi imaging system within 30 min of exposure to the substrate. Exposure times ranged from 1 to 10 min. Chemiluminescence was quantified with LabWorks imaging and analysis software. Horseradish peroxidase (HRP)-conjugated antibody served as a positive substrate control at six spots and was also used to identify membrane orientation. For each spot the net density gray level was determined by subtracting the background gray levels from the total raw density gray levels. The relative fold difference in cytokine amount was determined in reference to the amount present on the control culture membrane based on the following: average treated culture cytokine spot gray levels/average control culture cytokine spot gray levels. 2. ELISA • Cytokine was quantified by using the Flexia antibody pair system (Bio-Source Intl., Camarillo, Calif.). Basically, the enzyme-linked immunosorbent assays (ELISAs) were optimized by using 96-well plates (MaxiSorp; Nalge Nunc International Corp., Naperville, Ill.) coated with 100 μl of strepavidin (Sigma, St. Louis, Mo.) at 5 μg/ml in water overnight at 37° C. or until all water was evaporated. All plates were stored desiccated at 4° C. until use. Biotinylated F(ab)2 coating antibody (5 μg/ml) was added to each well, and the plate was incubated at 37° C. for 2 hours. All wells were blocked and washed according to the instructions of the manufacturer. Standards or samples (100 μl) were added to the wells, and the plates were incubated at 37° C. for 1 hour. HRP-conjugated antibody (10 μg/ml) was added for an additional hour at 37° C. The plates were then washed thoroughly according to the instructions of the manufacturer. One hundred microliters of tetramethlybenzidine substrate (Roche, Indianapolis, Ind.) was added to each well, and the plates were held for 30 min in the dark. The reaction was stopped by the addition of 100 μl of 2 NH2SO4 to each well. The absorbance was read on an automated plate reader (Tecan U.S. Inc.) at 450 nm (reference wavelength, 650 nm). Values (in picograms per milliliter) were calculated from a standard curve. Samples were diluted up to 1:20, depending on the concentration.
The immunological parameters, C-reactive protein, TNF-α and interleukins was measured in the blood samples taken at Screen, week 1, week 4, week 8 and at the end of the study.

[2] = test system: subjects with bipolar I or II disorder; experiment: Double-blind DM add-on to valproate, 12 weeks: YMRS, HDRS, CGI; assay type: in vivo, human; conditions: for YMRS score: DM 60 mg/day add-on to VPA
Excerpt: Totally 292 male and female subjects with bipolar I or II disorder, from the Department of Psychiatry at National Cheng Kung University Hospital and National Defense Medical Center were recruited. […] The Institutional Review Board for the Protection of Human Subjects approved the study protocol by both medical centers.
The add-on double-blind study treatment with DM/place was commenced at randomization for 12 weeks while patients continue open-label VPA. Subjects were randomized to either with 60 mg per day of DM or placebo at Baseline and proceeded to double-blind Add-On Treatment. The treatment response and side effect were measured to clarify the curative effect of DM add-on therapy to VPA in the treatment of bipolar disorders. […] Concomitant benzodiazepine medication (preferably up to 8 mg lorazepam) was used for daytime sedation, agitation or insomnia during the study. Risperidone 1-6 mg/daily and fluoxetine 20 mg/daily were permitted during manic or depressive stage, and anticholinergic drug was also used for the extrapyramidal syndrome (EPS).
The Chinese version of the modified SADS-L, a semi-structured interview aimed at formulating the main diagnoses based upon DSM-IV criteria with good inter-rater reliability. This modified version of SADS-L with its diagnoses was used as the gold standard. The severity of current symptoms was assessed by using the YMRS and HDRS. The diagnoses of a mood disorder were made according to DSM-IV criteria, except for bipolar II disorder, where the duration criterion for hypomania of 4 days was left out but 2-day cutoff for hypomania was used instead, because the 4 days minimum duration might not be based on data and the newly adopted cutoff had been supported by several previous reports. The side effect was measured using Clinical Global Impression (CGI) at each visit point.
(§1) All of the above, vital sign, and immunological markers were measured at baseline, 1, 2, 4, 8 and 12 weeks. For the 30 subjects of health control were also recruited for comparing the immune markers. The degree of benefit on symptoms after the week 4, 8 and end of treatment due to add-on DM treatment to VPA in comparison with placebo using a main measure of total psychopathology. The safety and tolerability and measure and assess the changes of immunology, and clinical features between the group with add-on DM treatment with placebo from Baseline to the end of study were compared.
For each scale, data were analyzed using last observation carried forward (LOCF) method, in which the last observation was entered for missing visits. To assess the efficacy in various clinical domains and take into account patient effects, mixed-effects models (Lange & Ryan 1989) were used (with intercept as the random effects) for all normally distributed outcomes, with main effects for treatment (DM or placebo), time (0, 1, 2, 4, 8, 12 weeks), and the treatment×time interaction. The analysis of the response rate was intent to treat. All hypothesis tests were 2-sided and were conducted at α=0.05. The post hoc of independent t test was then used to examine which time point the effect of add-on treatment started. P<0.05 was considered statistically significant for all two-sided tests. Statistical analyses were carried out using SPSS for windows (version 15.0).

[3] = test system: plasma TNF-α, IL-1β, IL-8, CRP, BDNF; experiment: Plasma cytokine level (ELISA) in the DM add-on valproate trial; assay type: in vivo, human
Protocol: Blood routine, SGOT, SGPT, BUN and creatinine were measured only while the samples were taken at screen and at the end of the study. Plasma cytokine was quantified using the enzyme-linked immunosorbent assays (ELISAs). The Quantikine Human cytokine kit (R&D system), and Molecular Devices (SpectraMax-M2) ELISA reader were used to analyze the plasma cytokine level. The immunological parameters, BDNF, TNF-α, and interleukins were measured in the blood samples. The low limit sensitivity was 0.5 pg/ml, 0.125 pg/ml and 62.5 pg/ml for TNF-α, IL-1β and BDNF respectively. Finally, we used HPLC with UV detector to measure the plasma DM level.
as §1

[4] = test system: rat primary mixed mesencephalic neuron-glia cultures; conditions: cited from earlier work
[5] = test system: LPS and MPTP PD models; conditions: cited from earlier work
[6] = test system: methadone-maintained male inpatients; conditions: DM at high doses (120, 240, 480 mg/day in increasing order); cited from earlier work
[7] = test system: subjects with opioid dependence; experiment: Double-blind DM add-on to methadone maintenance therapy, 12 weeks: methadone dose and urine opioid
[8] = BP subjects, after 12 weeks depakine add-on dextromethorphan vs pretest, FIG. 11
[9] = normal controls vs BP subjects, before and after treatment (data not shown)

COc1ccc2c(c1)[C@]13CCCC[C@@H]1[C@H](C2)N(C)CC3 [DM, Dextromethorphan]
plasma IL-6 concentration ([1]; between groups throughout 12-week treatment, FIG. 6): no significant differences | plasma IL-8 concentration ([1]; between groups throughout 12-week treatment, FIG. 7): no significant differences | plasma BDNF concentration ([1]; between groups throughout 12-week treatment, FIG. 8): no significant differences | plasma TNF-alpha concentration ([1]; both high and low plasma DM groups vs placebo): Significantly lower plasma TNF-alpha concentration | plasma IL-1beta concentration ([1]; both high and low plasma DM level groups vs placebo, FIG. 5): lower plasma IL-1beta concentration | plasma TNF-alpha concentration ([1]; low plasma DM group compared with high plasma DM group): tendency of more decrease of plasma TNF-alpha concentration | plasma CRP concentration ([1]; only in low plasma DM group, FIG. 4): lower plasma CRP concentration | HDRS score, DM vs placebo ([2]; BP I): no differences | YMRS score, DM vs placebo ([2]; BP I): no differences | YMRS score ([2]; BP I, Baseline): 8.08 ± 5.35 | YMRS score ([2]; BP I, Week 1): 8.08 ± 5.35 | YMRS score ([2]; BP I, Week 2): 7.31 ± 5.00 | YMRS score ([2]; BP I, Week 4): 5.86 ± 3.01 | YMRS score ([2]; BP I, Week 8): 6.16 ± 3.61 | YMRS score ([2]; BP I, Week 12): 5.80 ± 4.04 | CGI-therapeutic effect score, DM vs placebo ([2]; BP I, p=0.07, FIG. 10): borderline significance; also recorded: Borderline improvement | effectiveness in hypomania stage ([2]; BP II patients, dextromethorphan add-on depakine, after 8 weeks of treatment): more effective | YMRS score ([2]; BP II, Baseline): 5.77 ± 3.25 | YMRS score ([2]; BP II, Week 1): 5.60 ± 2.99 | YMRS score ([2]; BP II, Week 2): 5.88 ± 3.13 | YMRS score ([2]; BP II, Week 4): 5.60 ± 2.90 | YMRS score ([2]; BP II, Week 8 (p = 0.01 vs placebo)): 4.40 ± 2.26 | YMRS score ([2]; BP II, Week 12 (p = 0.008 vs placebo)): 4.26 ± 1.97 | YMRS score, DM vs placebo over time ([2]; BP II, F=5.68, p=0.02, FIG. 9): significant difference of YMRS score | plasma IL-1β ([3]; BP patients, after the add-on DM treatment): decrease | plasma IL-8 level [3, 8]: significant decreasing | plasma TNF-α level [3, 8]: significant decreasing | plasma BDNF [3, 9]: no difference | plasma CRP [3, 9]: no difference | neuroprotection with post-treatment ([4]; DM added up to 60 minutes after the addition of LPS): Significant neuroprotection | number of dopamine neurons and dendrite morphology ([4]; pretreated with DM (10 μM) before LPS stimulation): significantly more numerous and the dendrites less affected | concentration protecting dopamine neurons against LPS-induced reduction of dopamine uptake ([4]; rat primary mixed mesencephalic neuron-glia cultures): 1 to 10 µM | protective effect in animal PD models [5]: potent protective effect | effects on heart rate, blood pressure, temperature and plasma bromide [6]: mild elevations | percentage morphine-positive urine ([7]; both high (>30 ng/ml) and low (<=30 ng/ml) plasma DM level groups vs placebo, FIG. 2): lower percentage morphine-positive urine | methadone dosage change ([7]; low plasma DM level group (<=30 ng/ml) vs high plasma DM group and placebo, 12 weeks add-on to methadone, FIG. 1): highest tendency of decrease of methadone use
